Common to all, as to experiment: biochemical
Parameters in all cases: Eurofins recombinant human kinase profiling, remaining kinase activity as % of control, 10 uM ATP
Common to all, as to conditions: ATP 10 uM; read-out: %Ctrl@10 μM

The target in one assay is T1, IRE1(h) (Homo sapiens, UniProt O75460).
T1 construct: gene ERN1
Put shortly:
(§1)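 Activity measured in a commercial panel of 401 recombinant human protein kinases run as a kinase profiling service.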

Another assay has as its target T2, PKG1β(h) (Homo sapiens, UniProt Q13976).
T2 construct: gene PRKG1; isoform 1beta
Put shortly:
as §1

For a further assay, the target named is T3, Ron(h) (Homo sapiens, UniProt Q04912).
T3 construct: gene MST1R
Summed up: as §1

The target in a further assay is T4, PKCε(h) (Homo sapiens, UniProt Q02156).
T4 construct: gene PRKCE
Put shortly: as §1

A further assay addresses T5, PKA(h) (Homo sapiens, UniProt P17612).
T5 construct: gene PRKACA
Put shortly: as §1

In a further assay the target is DAPK1(h) (Homo sapiens, UniProt P53355). Summed up: as §1
The target in another assay is T6, ICK(h) (Homo sapiens, UniProt Q9UPZ9).
T6 construct: gene CILK1
Put shortly:
as §1

The target in the next assay is NLK(h) (Homo sapiens, UniProt Q9UBE8). Put shortly:
as §1

In the next assay the target is T7, SGK(h) (Homo sapiens, UniProt O00141).
T7 construct: gene SGK1
Summed up: as §1

In another assay the target is EphA4(h) (Homo sapiens, UniProt P54764). Put shortly:
as §1

The target in another assay is WNK3(h) (Homo sapiens, UniProt Q9BYP7). Put shortly: as §1
Another assay concerns the target T8, MSK2(h) (Homo sapiens, UniProt O75676).
T8 construct: gene RPS6KA4
Put shortly:
as §1

Another assay has as its target WNK1(h) (Homo sapiens, UniProt Q9H4A3). Summed up:
as §1

In the next assay the target is T9, JNK3(h) (Homo sapiens, UniProt P53779).
T9 construct: gene MAPK10
Summed up:
as §1

The next assay deals with T10, Pim-1(h) (Homo sapiens, UniProt P11309).
T10 construct: gene PIM1
Summed up: as §1

For another assay, the target named is PAK4(h) (Homo sapiens, UniProt O96013). Summed up:
as §1

The next assay concerns the target T11, Pim-2(h) (Homo sapiens, UniProt Q9P1W9).
T11 construct: gene PIM2
Summed up:
as §1

Another assay addresses T12, Abl(T315I)(h) (Homo sapiens, UniProt P00519, T315I).
T12 construct: gene ABL1
Summed up: as §1

The target of the next assay is GRK6(h) (Homo sapiens, UniProt P43250). Put shortly:
as §1

A further assay has as its target RIPK2(h) (Homo sapiens, UniProt O43353). Put shortly:
as §1

In another assay the target is T13, PDK1(h) (Homo sapiens, UniProt O15530).
T13 construct: gene PDPK1
Put shortly: as §1

The target in a further assay is T14, CK1δ(h) (Homo sapiens, UniProt P48730).
T14 construct: gene CSNK1D
Put shortly: as §1

The target in a further assay is WNK4(h) (Homo sapiens, UniProt Q96J92). Summed up:
as §1

1 compound from article PMC9719519, “Non-classical ferroptosis inhibition by a small molecule targeting PHB2” (Nature Communications, 2022) can be followed below.

The structures appear in SMILES notation.

T10 sequence (P11309 whole entry): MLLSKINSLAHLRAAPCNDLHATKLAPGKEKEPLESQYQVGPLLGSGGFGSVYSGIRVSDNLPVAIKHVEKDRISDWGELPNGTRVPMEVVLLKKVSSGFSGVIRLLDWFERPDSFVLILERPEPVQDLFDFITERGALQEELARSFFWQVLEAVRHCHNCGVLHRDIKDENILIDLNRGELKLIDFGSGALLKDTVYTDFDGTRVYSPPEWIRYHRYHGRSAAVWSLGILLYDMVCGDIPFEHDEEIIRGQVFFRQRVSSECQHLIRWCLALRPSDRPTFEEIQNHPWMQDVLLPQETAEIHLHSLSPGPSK
T2 sequence (Q13976 whole entry, canonical isoform): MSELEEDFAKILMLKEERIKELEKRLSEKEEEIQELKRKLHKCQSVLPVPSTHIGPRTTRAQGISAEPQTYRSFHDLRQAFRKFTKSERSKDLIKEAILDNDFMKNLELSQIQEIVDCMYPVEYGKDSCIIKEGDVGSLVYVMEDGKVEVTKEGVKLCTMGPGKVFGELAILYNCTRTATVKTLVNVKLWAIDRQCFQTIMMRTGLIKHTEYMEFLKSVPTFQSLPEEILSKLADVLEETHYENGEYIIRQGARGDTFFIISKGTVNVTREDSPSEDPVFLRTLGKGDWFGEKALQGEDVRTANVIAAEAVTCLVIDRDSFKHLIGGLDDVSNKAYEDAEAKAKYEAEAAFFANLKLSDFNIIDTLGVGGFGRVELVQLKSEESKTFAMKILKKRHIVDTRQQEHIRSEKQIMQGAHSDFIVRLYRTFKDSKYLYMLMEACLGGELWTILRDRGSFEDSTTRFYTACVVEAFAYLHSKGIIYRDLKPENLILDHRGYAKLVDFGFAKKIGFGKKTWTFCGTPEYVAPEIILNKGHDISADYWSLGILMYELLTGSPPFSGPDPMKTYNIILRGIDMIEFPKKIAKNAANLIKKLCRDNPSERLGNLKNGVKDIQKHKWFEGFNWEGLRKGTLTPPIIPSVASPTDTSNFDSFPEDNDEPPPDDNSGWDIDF
T11 sequence (Q9P1W9 whole entry): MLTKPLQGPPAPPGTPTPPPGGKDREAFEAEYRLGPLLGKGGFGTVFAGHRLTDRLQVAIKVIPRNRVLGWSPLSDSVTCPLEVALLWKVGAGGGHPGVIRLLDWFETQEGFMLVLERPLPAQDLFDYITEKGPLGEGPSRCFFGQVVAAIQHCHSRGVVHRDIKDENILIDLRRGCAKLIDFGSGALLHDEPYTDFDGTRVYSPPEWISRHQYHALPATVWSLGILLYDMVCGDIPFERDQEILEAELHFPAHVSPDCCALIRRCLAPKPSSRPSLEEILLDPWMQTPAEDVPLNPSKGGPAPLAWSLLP
T3 sequence (Q04912 whole entry): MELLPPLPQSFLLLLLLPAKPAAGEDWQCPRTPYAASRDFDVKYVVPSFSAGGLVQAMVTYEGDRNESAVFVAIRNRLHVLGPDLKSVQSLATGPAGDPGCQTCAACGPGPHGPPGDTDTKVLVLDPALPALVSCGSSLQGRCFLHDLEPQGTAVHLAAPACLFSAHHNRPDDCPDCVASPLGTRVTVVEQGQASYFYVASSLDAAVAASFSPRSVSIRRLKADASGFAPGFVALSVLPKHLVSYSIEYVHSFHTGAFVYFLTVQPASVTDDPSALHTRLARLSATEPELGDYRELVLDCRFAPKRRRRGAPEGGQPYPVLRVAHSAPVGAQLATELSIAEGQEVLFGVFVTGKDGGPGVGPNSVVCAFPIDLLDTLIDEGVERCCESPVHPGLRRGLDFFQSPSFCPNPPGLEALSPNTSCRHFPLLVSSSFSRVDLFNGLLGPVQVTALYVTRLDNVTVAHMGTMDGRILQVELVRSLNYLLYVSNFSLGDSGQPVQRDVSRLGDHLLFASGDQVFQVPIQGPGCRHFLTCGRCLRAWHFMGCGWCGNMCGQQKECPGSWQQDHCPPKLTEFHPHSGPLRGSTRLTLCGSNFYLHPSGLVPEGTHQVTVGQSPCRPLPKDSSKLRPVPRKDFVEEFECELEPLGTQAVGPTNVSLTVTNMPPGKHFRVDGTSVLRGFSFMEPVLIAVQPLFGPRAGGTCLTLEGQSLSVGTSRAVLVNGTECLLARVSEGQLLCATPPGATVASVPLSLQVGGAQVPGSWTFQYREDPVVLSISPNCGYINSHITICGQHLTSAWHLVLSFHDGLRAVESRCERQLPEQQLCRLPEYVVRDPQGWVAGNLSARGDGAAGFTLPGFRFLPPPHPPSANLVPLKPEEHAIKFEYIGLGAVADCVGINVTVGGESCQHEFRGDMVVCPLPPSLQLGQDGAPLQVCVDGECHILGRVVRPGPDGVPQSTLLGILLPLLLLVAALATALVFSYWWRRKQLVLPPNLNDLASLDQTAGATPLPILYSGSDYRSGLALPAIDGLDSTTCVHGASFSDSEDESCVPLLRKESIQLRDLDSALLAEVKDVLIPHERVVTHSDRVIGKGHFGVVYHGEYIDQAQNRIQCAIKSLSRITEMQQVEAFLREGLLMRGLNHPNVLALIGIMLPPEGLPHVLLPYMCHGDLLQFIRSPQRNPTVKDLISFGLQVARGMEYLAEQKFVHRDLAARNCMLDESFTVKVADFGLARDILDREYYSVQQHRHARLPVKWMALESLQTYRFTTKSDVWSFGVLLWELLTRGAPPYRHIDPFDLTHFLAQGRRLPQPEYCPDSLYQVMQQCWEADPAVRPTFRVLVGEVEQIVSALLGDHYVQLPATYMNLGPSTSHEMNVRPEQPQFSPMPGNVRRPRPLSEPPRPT
T1 sequence (O75460 whole entry): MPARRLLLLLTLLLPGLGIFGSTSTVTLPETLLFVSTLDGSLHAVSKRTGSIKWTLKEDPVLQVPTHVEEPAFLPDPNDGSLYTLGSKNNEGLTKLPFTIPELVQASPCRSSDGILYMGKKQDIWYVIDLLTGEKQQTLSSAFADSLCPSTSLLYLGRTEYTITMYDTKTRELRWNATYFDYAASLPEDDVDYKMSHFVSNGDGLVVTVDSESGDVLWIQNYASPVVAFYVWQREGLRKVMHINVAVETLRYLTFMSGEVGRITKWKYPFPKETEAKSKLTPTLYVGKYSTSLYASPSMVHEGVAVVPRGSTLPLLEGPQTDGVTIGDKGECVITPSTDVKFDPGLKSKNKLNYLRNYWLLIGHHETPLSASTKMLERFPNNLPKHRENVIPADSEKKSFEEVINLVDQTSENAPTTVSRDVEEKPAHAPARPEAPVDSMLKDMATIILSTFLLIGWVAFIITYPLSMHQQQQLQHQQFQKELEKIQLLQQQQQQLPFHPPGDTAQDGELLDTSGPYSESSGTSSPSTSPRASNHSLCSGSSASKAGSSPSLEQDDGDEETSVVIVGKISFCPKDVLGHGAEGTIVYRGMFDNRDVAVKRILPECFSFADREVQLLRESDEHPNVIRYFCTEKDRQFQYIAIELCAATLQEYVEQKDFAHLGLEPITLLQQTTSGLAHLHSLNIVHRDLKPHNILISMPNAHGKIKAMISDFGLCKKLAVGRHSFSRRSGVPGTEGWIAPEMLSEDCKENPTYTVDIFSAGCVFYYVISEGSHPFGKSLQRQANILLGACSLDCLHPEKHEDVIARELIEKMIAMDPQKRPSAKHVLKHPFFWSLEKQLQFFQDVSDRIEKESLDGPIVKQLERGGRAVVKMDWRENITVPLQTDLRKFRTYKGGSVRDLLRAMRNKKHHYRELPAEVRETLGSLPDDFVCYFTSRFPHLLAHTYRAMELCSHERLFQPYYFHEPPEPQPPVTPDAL
Chain of PAK4(h) (O96013 whole entry): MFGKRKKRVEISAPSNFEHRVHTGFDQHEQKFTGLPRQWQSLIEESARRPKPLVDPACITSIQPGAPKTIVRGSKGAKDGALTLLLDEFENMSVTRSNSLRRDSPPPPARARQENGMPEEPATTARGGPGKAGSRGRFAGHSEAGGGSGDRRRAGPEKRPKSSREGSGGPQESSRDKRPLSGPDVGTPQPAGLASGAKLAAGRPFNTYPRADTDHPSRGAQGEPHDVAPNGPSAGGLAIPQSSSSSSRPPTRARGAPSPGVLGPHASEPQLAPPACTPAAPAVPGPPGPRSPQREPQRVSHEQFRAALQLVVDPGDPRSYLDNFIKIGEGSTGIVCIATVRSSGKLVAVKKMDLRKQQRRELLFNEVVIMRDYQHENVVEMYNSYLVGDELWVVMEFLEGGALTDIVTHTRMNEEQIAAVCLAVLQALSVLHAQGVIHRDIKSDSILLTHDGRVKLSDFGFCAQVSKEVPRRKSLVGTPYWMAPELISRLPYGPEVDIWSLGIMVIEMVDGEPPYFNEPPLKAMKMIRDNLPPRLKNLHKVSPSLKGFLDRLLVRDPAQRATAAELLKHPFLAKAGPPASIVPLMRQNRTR
T9 sequence (P53779 whole entry): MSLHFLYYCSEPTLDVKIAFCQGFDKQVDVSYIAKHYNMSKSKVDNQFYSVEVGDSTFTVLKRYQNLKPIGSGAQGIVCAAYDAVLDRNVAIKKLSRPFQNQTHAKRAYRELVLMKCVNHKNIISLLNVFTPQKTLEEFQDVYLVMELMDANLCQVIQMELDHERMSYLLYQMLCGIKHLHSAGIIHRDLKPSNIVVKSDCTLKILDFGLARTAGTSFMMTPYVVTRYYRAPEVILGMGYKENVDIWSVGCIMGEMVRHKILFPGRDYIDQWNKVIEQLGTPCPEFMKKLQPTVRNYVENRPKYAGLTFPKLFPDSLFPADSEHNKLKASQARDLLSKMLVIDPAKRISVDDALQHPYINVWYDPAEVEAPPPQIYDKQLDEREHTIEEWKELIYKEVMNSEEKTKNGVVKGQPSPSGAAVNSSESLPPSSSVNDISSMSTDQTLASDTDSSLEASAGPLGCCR

On to `C1=C(c2nc(-c3cnn(C4CCNCC4)c3)cn3cc(-c4ccccc4)nc23)CCOC1` [YL-939], for which the remaining activity at 10 µM at IRE1(h) is 94%; on PKG1β(h) it was 83%; on Ron(h) it was 99%; at PKCε(h), 95%; on PKA(h), 98%; at DAPK1(h), 82%. For the same compound, the remaining activity at 10 µM at ICK(h) worked out at 92%; on NLK(h) it was 86%; at SGK(h), 72%; at EphA4(h) it was 89%; on WNK3(h) it was 87%; on MSK2(h), 90%. Further, the remaining activity at 10 µM at WNK1(h) amounted to 85%; at JNK3(h), 65%; at Pim-1(h) it was 68%; at PAK4(h), 97%; on Pim-2(h), 84%; on Abl(T315I)(h), 119%. Further, the remaining activity at 10 µM was 87% on GRK6(h); 71% at RIPK2(h); 127% at PDK1(h); 111% at CK1δ(h); 102% at WNK4(h).
